Test results: patent US10105357B2, “Indication of antibiotic drugs for preparation of cancer inhibition pharmaceutical composition” (LAUNX BIOMEDICAL CO., LTD., priority 2014, dated 2018)
Counter-ions that a name gives are not always drawn. Like-named read-outs stand apart in the source and are kept apart here.

What was measured:
NIH: OVCAR-3 = test: Cell viability analysis, ovarian cancer NIH: OVCAR-3; assay type: cell-based, human; details: Homo sapiens, OVCAR-3, 72 h, read-out: The results of antibiotic drug inhibiting cancer cell lines (cell viability analysis), NIH-OVCAR-3
AsPC-1 = test: Cell viability analysis, pancreatic cancer AsPC-1; assay type: cell-based, human; details: Homo sapiens, ASPC1, 72 h, read-out: The results of antibiotic drug inhibiting cancer cell lines (cell viability analysis), AsPC-1
[1] = test system: 786-O (Renal adenocarcinoma); test: Cell viability analysis, renal cancer 786-O; assay type: cell-based, human; details: Homo sapiens, 786-0, 72 h, read-out: The results of antibiotic drug inhibiting cancer cell lines (cell viability analysis), 786-O
BxPC-3 = test: Cell viability analysis, pancreatic cancer BxPC-3; assay type: cell-based, human; details: Homo sapiens, BXPC-3, 72 h, read-out: The results of antibiotic drug inhibiting cancer cell lines (cell viability analysis), BxPC-3
[2] = test system: MKN-45 (Gastric Adenocarcinoma); test: Cell viability analysis, gastric cancer MKN-45; assay type: cell-based, human; details: Homo sapiens, MKN-45, 72 h
[3] = test system: C-33A (Cervical carcinoma); test: Cell viability analysis, cervical cancer C-33A; assay type: cell-based, human; details: Homo sapiens, C-33-A, 72 h, read-out: The results of antibiotic drug inhibiting cancer cell lines (cell viability analysis), C-33A
[4] = test system: SAS (Tongue squamous cell carcinoma); test: Cell viability analysis, tongue cancer SAS; assay type: cell-based, human; details: Homo sapiens, 72 h, read-out: The results of antibiotic drug inhibiting cancer cell lines (cell viability analysis), SAS
[5] = test system: HI650 (Lung Adenocarcinoma); test: Cell viability analysis, lung cancer HI650; assay type: cell-based, human; details: Homo sapiens, NCI-H1650, 72 h
[6] = test system: AGS (Gastric Adenocarcinoma); test: Cell viability analysis, gastric cancer AGS; assay type: cell-based, human; details: Homo sapiens, 72 h
[7] = test system: A549 (Lung Adenocarcinoma); test: Cell viability analysis, lung cancer A549; assay type: cell-based, human; details: Homo sapiens, A549, 72 h
[8] = test system: A375 (Amelanotic Melanoma); test: Cell viability analysis, skin cancer A375; assay type: cell-based, human; details: Homo sapiens, A-375, 72 h
TOV-21G = test: Cell viability analysis, ovarian cancer TOV-21G; assay type: cell-based, human; details: Homo sapiens, TOV21G, 72 h, read-out: The results of antibiotic drug inhibiting cancer cell lines (cell viability analysis), TOV-21G
[9] = test system: MCF7 (Mammary Gland, Adenocarcinoma); test: Cell viability analysis, breast cancer MCF7; assay type: cell-based, human; details: Homo sapiens, MCF7, 72 h
U-2OS = test: Cell viability analysis, osteosarcoma U-2OS; assay type: cell-based, human; details: Homo sapiens, U2OS, 72 h, read-out: The results of antibiotic drug inhibiting cancer cell lines (cell viability analysis), U2OS
[10] = test system: PC3 (p53−) (Prostate Adenocarcinoma); test: Cell viability analysis, prostate cancer PC3; assay type: cell-based, human; details: Homo sapiens, 72 h
[11] = test system: TSGH-8301 (Urinary Bladder Carcinoma); test: Cell viability analysis, bladder cancer TSGH-8301; assay type: cell-based, human; details: Homo sapiens, 72 h
[12] = test system: HeLa (Cervix Adenocarcinoma); test: Cell viability analysis, cervical cancer HeLa; assay type: cell-based, human; details: Homo sapiens, HeLa, 72 h
[13] = test system: HL-60 (Acute Promyelocytic Leukemia); test: Cell viability analysis, leukemia HL-60; assay type: cell-based, human; details: Homo sapiens, HL-60, 72 h, read-out: cell viability (survival rate), HL-60, drug 10 μM, 72 hours, WST-1, OD450 nm
[14] = test system: BCC (basal cell carcinoma); test: Cell viability analysis, skin cancer BCC; assay type: cell-based, human; details: Homo sapiens, 72 h, read-out: The results of antibiotic drug inhibiting cancer cell lines (cell viability analysis), BCC
[15] = test system: LoVo (Colorectal Adenocarcinoma); test: Cell viability analysis, colon cancer LoVo; assay type: cell-based, human; details: Homo sapiens, LoVo, 72 h
cancer cell lines = test: Cell viability analysis (WST-1) on cancer cell lines; assay type: cell-based, human; details: drug 10 μM, 72 hours, WST-1; Table 3
[16] = test system: Hep3B (hepatocellular carcinoma); test: Cell viability analysis, hepatic cancer Hep3B; assay type: cell-based, human; details: Homo sapiens, Hep3B, 72 h, read-out: The results of antibiotic drug inhibiting cancer cell lines (cell viability analysis), Hep3B
[17] = test system: HCT116 (p53+) (Colorectal Carcinoma)
[18] = test system: MDA-MB-231 (Mammary Gland, Adenocarcinoma); test: Cell viability analysis, breast cancer MDA-MB-231; assay type: cell-based, human; details: Homo sapiens, MDA-MB-231, 72 h, read-out: The results of antibiotic drug inhibiting cancer cell lines (cell viability analysis), MDA-MB231
[19] = test system: HepG2 (Hepatocellular Carcinoma); test: Cell viability analysis, hepatic cancer HepG2; assay type: cell-based, human; details: Homo sapiens, HepG2, 72 h
T24 = test: Cell viability analysis, bladder cancer T24; assay type: cell-based, human; details: Homo sapiens, T-24, 72 h, read-out: The results of antibiotic drug inhibiting cancer cell lines (cell viability analysis), T24
[20] = read-out: The results of antibiotic drug inhibiting cancer cell lines (cell viability analysis), MKN-45, MKN-45, repeated experiment
[21] = read-out: cell viability (survival rate), MKN-45, drug 10 μM, 72 hours, WST-1, OD450 nm
[22] = read-out: The results of antibiotic drug inhibiting cancer cell lines (cell viability analysis), H1650, H1650, repeated experiment
[23] = read-out: cell viability (survival rate), H1650, drug 10 μM, 72 hours, WST-1, OD450 nm
[24] = read-out: The results of antibiotic drug inhibiting cancer cell lines (cell viability analysis), AGS, repeated experiment
[25] = read-out: cell viability (survival rate), AGS, drug 10 μM, 72 hours, WST-1, OD450 nm
[26] = read-out: The results of antibiotic drug inhibiting cancer cell lines (cell viability analysis), A549, A549, repeated experiment
[27] = read-out: cell viability (survival rate), A549, drug 10 μM, 72 hours, WST-1, OD450 nm
[28] = read-out: The results of antibiotic drug inhibiting cancer cell lines (cell viability analysis), A375, A375, repeated experiment
[29] = read-out: cell viability (survival rate), A375, drug 10 μM, 72 hours, WST-1, OD450 nm
[30] = read-out: The results of antibiotic drug inhibiting cancer cell lines (cell viability analysis), MCF-7, MCF-7, repeated experiment
[31] = read-out: cell viability (survival rate), MCF7, drug 10 μM, 72 hours, WST-1, OD450 nm
[32] = read-out: The results of antibiotic drug inhibiting cancer cell lines (cell viability analysis), PC-3, PC-3, repeated experiment
[33] = read-out: cell viability (survival rate), PC3, drug 10 μM, 72 hours, WST-1, OD450 nm
[34] = read-out: The results of antibiotic drug inhibiting cancer cell lines (cell viability analysis), TSGH-8301, TSGH-8301, repeated experiment
[35] = read-out: cell viability (survival rate), TSGH, drug 10 μM, 72 hours, WST-1, OD450 nm
[36] = read-out: The results of antibiotic drug inhibiting cancer cell lines (cell viability analysis), HeLa, repeated experiment
[37] = read-out: cell viability (survival rate), HeLa, drug 10 μM, 72 hours, WST-1, OD450 nm
[38] = read-out: The results of antibiotic drug inhibiting cancer cell lines (cell viability analysis), LoVo, repeated experiment
[39] = read-out: cell viability (survival rate), LoVo, drug 10 μM, 72 hours, WST-1, OD450 nm
[40] = read-out: The results of antibiotic drug inhibiting cancer cell lines (cell viability analysis), HepG2, HepG2, repeated experiment
[41] = read-out: cell viability (survival rate), HepG2, drug 10 μM, 72 hours, WST-1, OD450 nm

Compound	viability at 10 µM (AsPC-1) [%]	viability at 10 µM [1] [%]	viability at 10 µM (BxPC-3) [%]	viability at 10 µM [2, 20] [%]	viability at 10 µM [3] [%]	viability at 10 µM [4] [%]	viability at 10 µM [5, 22] [%]	viability at 10 µM [6, 24] [%]	viability at 10 µM [7, 26] [%]	viability at 10 µM (TOV-21G) [%]	viability at 10 µM [9, 30] [%]	viability at 10 µM (U-2OS) [%]	viability at 10 µM [10, 32] [%]	viability at 10 µM [11, 34] [%]	viability at 10 µM [12, 36] [%]	viability at 10 µM [14] [%]	viability at 10 µM [15, 38] [%]	inhibition effect on different cancer cell lines (cancer cell lines)	viability at 10 µM [16] [%]	viability [17] [%]	further results
CCOc1ccc(NC(C)=O)cc1 [Phenacetin]	90.5	92	73.2	123	114	81.9	90.1	122	87.6	95.8	92.9	63.9	133	128	110	119	87.7	significant inhibition effect	106	102	viability at 10 µM (NIH: OVCAR-3): 105%; viability at 10 µM [2, 21]: 75.1%; viability at 10 µM [5, 23]: 39.1%; viability at 10 µM [6, 25]: 40.4%; viability at 10 µM [7, 27]: 34.4%; viability at 10 µM [8, 28]: 106%; viability at 10 µM [8, 29]: 54.1%; viability at 10 µM [9, 31]: 62.7%; viability at 10 µM [10, 33]: 40.4%; viability at 10 µM [11, 35]: 23.3%; viability at 10 µM [12, 37]: 57.2%; viability at 10 µM [13]: 95.3%; viability at 10 µM [15, 39]: 48.5%; viability at 10 µM [18]: 91.7%; viability at 10 µM [19, 40]: 121%; viability at 10 µM [19, 41]: 72.5%
CN(C)CCC[C@@]1(c2ccc(F)cc2)OCc2cc(C#N)ccc21 [Escitalopram oxalate]	80.3	88.8	68.1	127	110	65.3	92.1	145	103	117	80.1	62.2	120	135	126	102	89.3	significant inhibition effect	134	123	viability at 10 µM [2, 21]: 116%; viability at 10 µM [5, 23]: 80.4%; viability at 10 µM [6, 25]: 62.3%; viability at 10 µM [7, 27]: 122%; viability at 10 µM [8, 29]: 68%; viability at 10 µM [9, 31]: 97.4%; viability at 10 µM [10, 33]: 79.5%; viability at 10 µM [11, 35]: 80.6%; viability at 10 µM [12, 37]: 95%; viability at 10 µM [13]: 92.7%; viability at 10 µM [15, 39]: 91.6%; viability at 10 µM [18]: 111%; viability at 10 µM [19, 40]: 113%; viability at 10 µM [19, 41]: 94%; viability at 10 µM (T24): 97.7%
CC(=O)NC[C@H]1CN(c2ccc(N3CCOCC3)c(F)c2)C(=O)O1 [Linezolid (Zyvox), Linezolid]	92.6	98.6	95.6	137	132	84	95.6	104	82.1	78.2	73.1	99.8	115	99.7	89.2	67.2	89.5	significant inhibition effect	99.9	107	viability at 10 µM (NIH: OVCAR-3): 110%; viability at 10 µM [2, 21]: 65.9%; viability at 10 µM [5, 23]: 51.3%; viability at 10 µM [6, 25]: 70.8%; viability at 10 µM [7, 27]: 40.2%; viability at 10 µM [8, 28]: 82.8%; viability at 10 µM [8, 29]: 57.6%; viability at 10 µM [9, 31]: 66.3%; viability at 10 µM [10, 33]: 67%; viability at 10 µM [11, 35]: 58.2%; viability at 10 µM [12, 37]: 93.7%; viability at 10 µM [13]: 129%; viability at 10 µM [15, 39]: 91%; viability at 10 µM [18]: 96.2%; viability at 10 µM [19, 40]: 107%; viability at 10 µM [19, 41]: 91.3%
CN(C)CCCN1c2ccccc2CCc2ccc(Cl)cc21 [Clomipramine hydrochloride (Anafranil), Clomipramine hydrochloride]	77.2	80.3	78.3	125	118	51.6	103	122	86.4	118	65.9	58.4	91.2	139	113	124	65.7	significant inhibition effect	135	137	viability at 10 µM [18]: 117%; viability at 10 µM (T24): 109%
